Reference: patent publication US9758524B2, “4-imidazopyridazin-1-yl-benzamides as Btk inhibitors” (Merck Sharp & Dohme B.V., priority 2011, dated 2017)
pEC50: −log10 of the molar value. Where two headings read alike, the source gives them in different places.

Assays:
Src enzyme = Src enzyme (Homo sapiens (Human), UniProt P12931); experiment: Src enzyme activity (IMAP fluorescence polarization assay); conditions: read-out: EC50 Src activity values; IMAP, 60 min pre-incubation, 4 μM ATP
Btk enzyme (His-Btk) = Btk enzyme (His-Btk) (Homo sapiens (Human), UniProt Q06187); experiment: Btk enzyme activity (IMAP fluorescence polarization assay); conditions: for EC50 Btk activity values / EC50: IMAP, 60 min pre-incubation, 5 μM ATP; for EC50: read-out: EC50 Btk activity values
Chain of Btk enzyme (His-Btk) (Q06187 whole entry): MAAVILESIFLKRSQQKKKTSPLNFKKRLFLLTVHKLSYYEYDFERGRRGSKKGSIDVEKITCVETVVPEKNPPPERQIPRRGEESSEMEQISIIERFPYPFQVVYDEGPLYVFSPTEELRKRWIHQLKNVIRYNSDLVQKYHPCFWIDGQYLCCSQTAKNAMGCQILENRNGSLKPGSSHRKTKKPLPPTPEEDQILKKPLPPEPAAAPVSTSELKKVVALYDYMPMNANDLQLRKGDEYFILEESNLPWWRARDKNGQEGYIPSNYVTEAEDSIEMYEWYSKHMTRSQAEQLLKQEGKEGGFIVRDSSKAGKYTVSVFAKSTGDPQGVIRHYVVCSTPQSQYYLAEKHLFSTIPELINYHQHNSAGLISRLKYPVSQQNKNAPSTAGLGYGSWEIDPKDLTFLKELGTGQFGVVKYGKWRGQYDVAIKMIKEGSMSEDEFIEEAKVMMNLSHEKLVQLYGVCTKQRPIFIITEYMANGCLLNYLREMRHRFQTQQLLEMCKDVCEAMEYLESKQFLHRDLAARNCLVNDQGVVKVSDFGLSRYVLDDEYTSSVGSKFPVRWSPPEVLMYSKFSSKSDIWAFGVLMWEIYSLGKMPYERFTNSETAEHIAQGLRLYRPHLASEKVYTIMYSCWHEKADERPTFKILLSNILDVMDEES

Lyn enzyme = Lyn enzyme (Homo sapiens (Human), UniProt P07948); experiment: Lyn enzyme activity (IMAP fluorescence polarization assay); conditions: read-out: EC50 Lyn activity values, 60 min pre-incubation, 2 μM ATP, bin bound in μM
Chain of Lyn enzyme (P07948 whole entry): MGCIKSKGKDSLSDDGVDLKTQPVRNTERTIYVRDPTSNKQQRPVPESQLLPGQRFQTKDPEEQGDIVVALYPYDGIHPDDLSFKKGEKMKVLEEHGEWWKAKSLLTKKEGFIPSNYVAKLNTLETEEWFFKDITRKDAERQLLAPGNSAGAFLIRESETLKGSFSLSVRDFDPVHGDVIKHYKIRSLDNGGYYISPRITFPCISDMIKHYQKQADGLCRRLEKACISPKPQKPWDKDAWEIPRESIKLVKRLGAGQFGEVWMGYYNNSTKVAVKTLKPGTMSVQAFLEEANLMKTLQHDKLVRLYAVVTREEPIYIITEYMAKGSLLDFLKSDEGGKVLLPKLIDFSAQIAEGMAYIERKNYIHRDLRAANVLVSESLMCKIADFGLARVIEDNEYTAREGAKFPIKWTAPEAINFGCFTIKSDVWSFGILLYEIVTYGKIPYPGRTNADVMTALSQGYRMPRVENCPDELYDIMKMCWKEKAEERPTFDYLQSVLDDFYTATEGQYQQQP

Lck enzyme = Lck enzyme (Homo sapiens (Human), UniProt P06239); experiment: Lck enzyme activity (IMAP fluorescence polarization assay); conditions: read-out: EC50 Lck activity values; IMAP, 60 min pre-incubation, 6 μM ATP; bin bound in μM
Chain of Lck enzyme (P06239 whole entry): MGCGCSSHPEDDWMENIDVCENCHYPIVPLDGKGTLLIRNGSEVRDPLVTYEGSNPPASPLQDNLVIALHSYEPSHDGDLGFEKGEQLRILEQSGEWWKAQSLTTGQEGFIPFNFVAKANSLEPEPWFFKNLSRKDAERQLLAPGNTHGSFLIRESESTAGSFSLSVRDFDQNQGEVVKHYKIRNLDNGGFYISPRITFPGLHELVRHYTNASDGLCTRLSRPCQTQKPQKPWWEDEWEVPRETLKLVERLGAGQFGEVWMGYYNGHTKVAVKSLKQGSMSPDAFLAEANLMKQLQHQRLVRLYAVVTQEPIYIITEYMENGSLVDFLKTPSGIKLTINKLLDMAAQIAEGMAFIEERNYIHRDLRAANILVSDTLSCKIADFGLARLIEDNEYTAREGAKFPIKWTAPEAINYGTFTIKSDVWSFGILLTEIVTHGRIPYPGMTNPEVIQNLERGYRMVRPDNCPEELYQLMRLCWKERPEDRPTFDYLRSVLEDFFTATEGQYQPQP

FynT enzyme = FynT enzyme (Homo sapiens (Human), UniProt P06241); experiment: FynT enzyme activity (IMAP fluorescence polarization assay); type: biochemical; conditions: 60 min pre-incubation, 0.2 μM ATP
Chain of FynT enzyme (P06241 other isoform, or with tags, fused parts or gaps): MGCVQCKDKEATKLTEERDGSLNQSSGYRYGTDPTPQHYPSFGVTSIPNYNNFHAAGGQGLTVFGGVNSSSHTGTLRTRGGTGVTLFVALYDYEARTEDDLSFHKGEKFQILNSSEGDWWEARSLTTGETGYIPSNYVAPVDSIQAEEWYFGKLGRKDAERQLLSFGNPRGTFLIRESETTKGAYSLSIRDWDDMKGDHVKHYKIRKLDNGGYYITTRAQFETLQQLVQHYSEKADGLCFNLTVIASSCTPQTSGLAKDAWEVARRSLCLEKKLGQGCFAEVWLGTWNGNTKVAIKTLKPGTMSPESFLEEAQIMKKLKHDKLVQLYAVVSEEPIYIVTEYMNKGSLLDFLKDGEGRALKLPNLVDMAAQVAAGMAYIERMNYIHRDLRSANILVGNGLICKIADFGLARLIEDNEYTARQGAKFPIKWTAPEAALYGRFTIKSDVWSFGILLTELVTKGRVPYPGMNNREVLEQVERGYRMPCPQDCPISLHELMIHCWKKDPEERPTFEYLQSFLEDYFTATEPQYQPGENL
Description: FynT enzyme activity is measured using the IMAP (immobilized metal ion affinity-based fluorescence polarization) assay as outlined below.
Test compounds and FynT enzyme are pre-incubated 60 minutes at room temperature, before adding 5 μL/well of 400 nM Fluorescin labeled substrate peptide (p34cdc2 substrate peptide, e.g. #R7157/#R7172, Molecular Devices) in KR-buffer. Final peptide substrate concentration in assay is 100 nM. […] Following incubation for 2 h at room temperature the enzyme reaction is stopped by adding 40 μL/well IMAP Progressive Binding Solution (according to suppliers (Molecular Devices) protocol using 75% 1× buffer A and 25% 1× buffer B with 1:600 Progressive Binding Solution). After 60 min incubation at room temperature in the dark the FP signal is read. […] Values are calculated as percentage of the difference in readout (ΔmPi) of the controls with and without ATP. EC50 values are determined by curve fitting of the experimental results using Activity Base.

Chain of Src enzyme (P12931 whole entry, looked up): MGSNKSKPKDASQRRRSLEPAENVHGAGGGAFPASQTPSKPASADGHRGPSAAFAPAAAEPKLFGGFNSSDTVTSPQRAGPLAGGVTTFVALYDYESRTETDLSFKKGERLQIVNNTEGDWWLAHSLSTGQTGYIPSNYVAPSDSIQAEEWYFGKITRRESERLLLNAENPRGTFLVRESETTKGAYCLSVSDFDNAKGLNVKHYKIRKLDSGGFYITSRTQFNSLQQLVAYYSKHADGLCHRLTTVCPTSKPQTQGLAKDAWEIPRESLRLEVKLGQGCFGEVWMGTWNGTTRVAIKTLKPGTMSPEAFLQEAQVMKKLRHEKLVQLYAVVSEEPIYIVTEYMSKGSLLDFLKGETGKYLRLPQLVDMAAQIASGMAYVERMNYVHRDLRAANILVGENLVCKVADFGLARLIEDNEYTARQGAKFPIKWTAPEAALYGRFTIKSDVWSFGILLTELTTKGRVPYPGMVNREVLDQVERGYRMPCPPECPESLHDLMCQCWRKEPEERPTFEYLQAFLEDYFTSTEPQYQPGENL

pEC50 (Src enzyme) | pEC50 (Btk enzyme (His-Btk)) | EC50 Btk activity values (Btk enzyme (His-Btk); bin bound in nM) [nM] | EC50 (Lyn enzyme) [µM] | EC50 (Lck enzyme) [µM] | pEC50 (FynT enzyme) | EC50 (Btk enzyme (His-Btk); bin bound in nM) [nM] | EC50 Btk activity values (Btk enzyme (His-Btk); bin bound in μM) [nM] | SMILES
≤ 6.00 | – | – | ≥ 1 | ≥ 1 | ≤ 6.00 | < 10 | – | COC/C=C/C(=O)N(C)[C@@H](C)c1nc(-c2ccc(C(=O)Nc3cc(C(F)(F)F)ccn3)cc2)c2c(N)nccn12 [Example 75, (S,E)-4-(8-amino-3-(1-(4-methoxy-N-methylbut-2-enamido)ethyl)imidazo[1,5-a]pyrazin-1-yl)-N-(4-(trifluoromethyl)pyridin-2-yl)benzamide]
≤ 6.00 | 6.00 to 7.00 | – | ≥ 1 | ≥ 1 | ≤ 6.00 | – | <1000 | COC/C=C/C(=O)N1CCCC[C@H]1c1nc(-c2ccc(C(=O)Nc3ccon3)cc2)c2c(N)nccn12 [Example 54, (S,E)-4-(8-amino-3-(1-(4-methoxybut-2-enoyl)piperidin-2-yl)imidazo[1,5-a]pyrazin-1-yl)-N-(isoxazol-3-yl)benzamide]
≤ 6.00 | – | – | ≥ 1 | ≥ 1 | ≤ 6.00 | < 10 | – | CCc1cnc(NC(=O)c2ccc(-c3nc([C@@H]4CCCCN4C(=O)/C=C/COC)n4ccnc(N)c34)cc2)s1 [Example 25, (S,E)-4-(8-Amino-3-(1-(4-methoxybut-2-enoyl)piperidin-2-yl)imidazo[1,5-a]pyrazin-1-yl)-N-(5-ethylthiazol-2-yl)benzamide]
≤ 6.00 | – | – | ≥ 1 | ≥ 1 | ≤ 6.00 | < 10 | – | C=CC(=O)NCc1nc(-c2ccc(C(=O)Nc3ccccn3)cc2)c2c(N)nccn12 [Example 29, 4-(3-(Acrylamidomethyl)-8-aminoimidazo[1,5-a]pyrazin-1-yl)-N-(pyridin-2-yl)benzamide]
≤ 6.00 | 7.00 to 8.00 | <100 | ≥ 1 | ≥ 1 | ≤ 6.00 | – | – | COC/C=C/C(=O)N1CCC[C@H]1c1nc(-c2ccc(C(=O)Nc3cc(C(C)C)ccn3)cc2)c2c(N)nccn12 [Example 58, (S,E)-4-(8-amino-3-(1-(4-methoxybut-2-enoyl)pyrrolidin-2-yl)imidazo[1,5-a]pyrazin-1-yl)-N-(4-isopropylpyridin-2-yl)benzamide]
≤ 6.00 | – | – | ≥ 1 | ≥ 1 | ≤ 6.00 | < 10 | – | COC/C=C/C(=O)N1CCOC[C@H]1c1nc(-c2ccc(C(=O)Nc3ccccn3)cc2)c2c(N)nccn12 [Example 120, (R,E)-4-(8-amino-3-(4-(4-methoxybut-2-enoyl)morpholin-3-yl)imidazo[1,5-a]pyrazin-1-yl)-N-(pyridin-2-yl)benzamide]

Further lines, the molecule ahead of its results:

SMILES | pEC50 (Src enzyme) | pEC50 (Btk enzyme (His-Btk)) | EC50 Btk activity values (Btk enzyme (His-Btk); bin bound in nM) [nM] | EC50 (Lyn enzyme) [µM] | EC50 (Lck enzyme) [µM] | pEC50 (FynT enzyme) | EC50 (Btk enzyme (His-Btk); bin bound in nM) [nM] | EC50 Btk activity values (Btk enzyme (His-Btk); bin bound in μM) [nM]
CC#CC(=O)N1CCC[C@H]1c1nc(-c2ccc(C(=O)Nc3ccccn3)c(OC)c2)c2c(N)nccn12 [Example 99, (S)-4-(8-amino-3-(1-but-2-ynoylpyrrolidin-2-yl)imidazo[1,5-a]pyrazin-1-yl)-2-methoxy-N-(pyridin-2-yl)benzamide] | ≤ 6.00 | 7.00 to 8.00 | <100 | ≥ 1 | ≥ 1 | ≤ 6.00 | – | –
Cc1cc(C(=O)Nc2ccccn2)ccc1-c1nc([C@@H]2CCCCN2C(=O)c2ccnc(Cl)n2)n2ccnc(N)c12 [Example 56, 4-(8-amino-3-((S)-1-(2-chloropyrimidine-4-carbonyl)piperidin-2-yl)imidazo[1,5-a]pyrazin-1-yl)-3-methyl-N-(pyridin-2-yl)benzamide] | ≤ 6.00 | 7.00 to 8.00 | <100 | ≥ 1 | ≥ 1 | ≤ 6.00 | – | –
CC#CC(=O)N1CCCC[C@H]1c1nc(-c2ccc(C(=O)Nc3ccon3)cc2)c2c(N)nccn12 [Example 24, (S)-4-(8-Amino-3-(1-but-2-ynoylpiperidin-2-yl)imidazo[1,5-a]pyrazin-1-yl)-N-(isoxazol-3-yl)benzamide] | ≤ 6.00 | 7.00 to 8.00 | <100 | ≥ 1 | ≥ 1 | ≤ 6.00 | – | –
CC#CC(=O)N1CCCC[C@H]1c1nc(-c2ccc(C(=O)Nc3cc(CCC)ccn3)c(F)c2)c2c(N)nccn12 [Example 67, (S)-4-(8-amino-3-(1-but-2-ynoylpiperidin-2-yl)imidazo[1,5-a]pyrazin-1-yl)-2-fluoro-N-(4-propylpyridin-2-yl)benzamide] | ≤ 6.00 | – | – | ≥ 1 | ≥ 1 | ≤ 6.00 | < 10 | –
C=CS(=O)(=O)N1CCCC[C@H]1c1nc(-c2ccc(C(=O)Nc3cc(CCC)ccn3)cc2)c2c(N)nccn12 [Example 49, (S)-4-(8-amino-3-(1-(vinylsulfonyl)piperidin-2-yl)imidazo[1,5-a]pyrazin-1-yl)-N-(4-propylpyridin-2-yl)benzamide] | ≤ 6.00 | – | – | ≥ 1 | ≥ 1 | ≤ 6.00 | < 10 | –
CC#CC(=O)N1CCCC[C@H]1c1nc(-c2ccc(C(=O)Nc3ccncn3)cc2)c2c(N)nccn12 [Example 22, (S)-4-(8-Amino-3-(1-but-2-ynoylpiperidin-2-yl)imidazo[1,5-a]pyrazin-1-yl)-N-(pyrimidin-4-yl)benzamide] | ≤ 6.00 | – | – | ≥ 1 | ≥ 1 | ≤ 6.00 | < 10 | –
Nc1nccn2c([C@@H]3CCCCN3C(=O)c3ccnc(Cl)n3)nc(-c3ccc(C(=O)Nc4cc(F)ccn4)cc3)c12 [Example 80, (S)-4-(8-amino-3-(1-(2-chloropyrimidine-4-carbonyl)piperidin-2-yl)imidazo[1,5-a]pyrazin-1-yl)-N-(4-fluoropyridin-2-yl)benzamide] | ≤ 6.00 | 7.00 to 8.00 | <100 | ≥ 1 | ≥ 1 | ≤ 6.00 | – | –
CC(C)c1ccnc(NC(=O)c2ccc(-c3nc([C@@H]4CCCN4C(=O)c4ccnc(Cl)n4)n4ccnc(N)c34)cc2)c1 [Example 70, (S)-4-(8-amino-3-(1-(2-chloropyrimidine-4-carbonyl)pyrrolidin-2-yl)imidazo[1,5-a]pyrazin-1-yl)-N-(4-isopropylpyridin-2-yl)benzamide] | ≤ 6.00 | 7.00 to 8.00 | <100 | ≥ 1 | ≥ 1 | ≤ 6.00 | – | –
CCCc1ccnc(NC(=O)c2ccc(-c3nc([C@@H]4CCCCN4C(=O)/C=C/COC)n4ccnc(N)c34)cc2F)c1 [Example 114, (S,E)-4-(8-amino-3-(1-(4-methoxybut-2-enoyl)piperidin-2-yl)imidazo[1,5-a]pyrazin-1-yl)-2-fluoro-N-(4-propylpyridin-2-yl)benzamide] | ≤ 6.00 | 7.00 to 8.00 | <100 | ≥ 1 | ≥ 1 | ≤ 6.00 | – | –
CC(=O)SCC(=O)N1CCC[C@H]1c1nc(-c2ccc(C(=O)Nc3ccccn3)cc2)c2c(N)nccn12 [Example 31, (S)—S-2-(2-(8-Amino-1-(4-(pyridin-2-ylcarbamoyl)phenyl)imidazo[1,5-a]pyrazin-3-yl)pyrrolidin-1-yl)-2-oxoethyl ethanethioate] | ≤ 6.00 | – | – | ≥ 1 | ≥ 1 | ≤ 6.00 | < 10 | –
